{"source": "patent US12435144B2", "about": "“Use of combination of anti-PD-1 antibody and VEGFR inhibitor in preparation of drug for treating cancers” (Suzhou Suncadia Biopharmaceuticals Co., Ltd., priority 2016, dated 2025)", "key": {"VEGFR-2": {"target": "VEGFR-2 (Homo sapiens, UniProt P35968)", "sequence (P35968 20-1356, species assumed)": "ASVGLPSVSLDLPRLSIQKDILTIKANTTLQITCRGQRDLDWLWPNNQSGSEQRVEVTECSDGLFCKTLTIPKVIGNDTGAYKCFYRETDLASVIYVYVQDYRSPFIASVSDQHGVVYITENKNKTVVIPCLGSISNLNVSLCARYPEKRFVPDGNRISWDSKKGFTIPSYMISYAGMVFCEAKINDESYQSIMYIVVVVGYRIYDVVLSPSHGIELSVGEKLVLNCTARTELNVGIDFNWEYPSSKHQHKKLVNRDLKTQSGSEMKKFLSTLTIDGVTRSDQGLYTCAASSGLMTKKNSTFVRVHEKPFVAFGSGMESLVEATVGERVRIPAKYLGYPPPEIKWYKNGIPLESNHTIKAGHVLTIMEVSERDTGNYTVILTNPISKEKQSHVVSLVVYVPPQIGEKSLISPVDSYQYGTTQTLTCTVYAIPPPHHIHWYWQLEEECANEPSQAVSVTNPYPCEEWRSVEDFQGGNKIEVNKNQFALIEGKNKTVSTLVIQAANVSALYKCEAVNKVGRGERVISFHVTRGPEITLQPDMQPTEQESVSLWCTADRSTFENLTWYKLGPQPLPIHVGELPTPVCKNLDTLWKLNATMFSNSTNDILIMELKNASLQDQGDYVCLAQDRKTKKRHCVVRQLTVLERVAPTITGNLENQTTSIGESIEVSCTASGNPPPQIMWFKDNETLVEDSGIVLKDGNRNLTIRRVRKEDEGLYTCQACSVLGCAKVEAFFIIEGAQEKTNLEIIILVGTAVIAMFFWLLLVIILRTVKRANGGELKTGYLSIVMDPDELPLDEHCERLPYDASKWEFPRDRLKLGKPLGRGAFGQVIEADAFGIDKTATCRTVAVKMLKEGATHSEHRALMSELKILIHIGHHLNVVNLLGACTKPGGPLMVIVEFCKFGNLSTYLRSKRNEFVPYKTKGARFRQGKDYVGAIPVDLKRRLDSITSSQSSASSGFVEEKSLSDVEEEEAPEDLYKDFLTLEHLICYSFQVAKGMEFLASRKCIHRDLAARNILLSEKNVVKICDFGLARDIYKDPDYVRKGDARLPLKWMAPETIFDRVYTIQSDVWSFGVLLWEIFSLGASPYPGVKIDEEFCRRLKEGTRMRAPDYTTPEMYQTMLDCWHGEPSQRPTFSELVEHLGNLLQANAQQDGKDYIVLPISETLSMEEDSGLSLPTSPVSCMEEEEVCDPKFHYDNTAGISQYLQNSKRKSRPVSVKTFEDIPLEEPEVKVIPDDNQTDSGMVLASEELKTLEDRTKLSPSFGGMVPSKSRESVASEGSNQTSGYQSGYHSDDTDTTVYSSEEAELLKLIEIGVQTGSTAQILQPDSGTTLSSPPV", "conditions": "little or no inhibition on other kinases; cited from earlier work"}, "[1]": {"system": "metastatic gastric/gastroesophageal junction cancer", "conditions": "cited from earlier work"}, "[2]": {"system": "mouse colon cancer cell MC-38 (PD-L1) xenograft", "experiment": "MC38 (PD-L1) xenograft in human PD-1 transgenic C57 mice", "type": "in vivo", "conditions": "anti-PD-1 antibody 3 mg/kg ip Q2D*7, apatinib 200 mg/kg po QD*14", "method": "• 1. Study purposes: Human PD-1 transgenic mice were used as test animals. The effects of anti-PD-1 antibody in combination with apartinib on human PD-1 expressed in transgenic C57 mice were evaluated, and the transgenic mice bear mouse colon cancer cell MC-38 (PD-L1) xenograft transfected with PD-L1 gene. • 2. Test antibodies and compounds: The anti-PD-1 antibody was prepared according to the method disclosed in WO2015085847 in which the corresponding code of the antibody is H005-1, and the sequences of the heavy and light chain are shown in SEQ ID NO: 7 and SEQ ID NO: 8 in the present invention. Lot number: P1512, 200 mg/vial, formulated into 20 mg/ml before use. Apatinib mesylate was prepared according to the method disclosed in CN101676267A, lot number: 668160401; molecular weight: 493.58; purity: 99.60%. • 3. Experimental animals: Human PD-1 transgenic C57 mice, specific-pathogen-free (SPF), with different body weights, 50% male and 50% female, were purchased from IsisInnovation Limited, UK. • 4. Drug preparation: Anti-PD-1 antibody (3 mg/kg): anti-PD-1 antibody stock solution (20 mg/ml) was adjusted to a concentration of 0.3 mg/ml with phosphate buffered saline (PBS), and the intraperitoneal injection volume was 0.2 ml/mouse. Apatinib (200 mg/kg): 400 mg apatinib was dissolved in 20 ml of 0.5% sodium carboxymethylcellulose (NaCMC), adjusted to 20 mg/ml, and was administered in 0.2 ml per mouse by gavage. […] The specific drug administration regimen is shown in Table 1. • 5.4 Determination of volume of xenograft and body weight of mice: Tumor volume and body weight were measured twice a week and data were recorded. • 5.5 Statistics: Excel 2003 statistical software was used: the mean was calculated by avg; the SD value was calculated by STDEV; the SEM value was calculated by STDEV/SQRT; the P value indicating the difference between groups is calculated by TTEST. […]"}, "[3]": {"conditions": "apatinib alone compared with placebo"}}}
{"compound": "N#CC1(c2ccc(NC(=O)c3cccnc3NCc3ccncc3)cc2)CCCC1", "note": "[apatinib, reference compound]", "values": [{"measurement": "selectivity for VEGFR-2 over other kinases", "setting": "VEGFR-2", "result": "highly selective for VEGFR-2"}, {"measurement": "prolongation of median overall survival", "setting": "[1]; [3]", "result": 1.8, "unit": "months"}, {"measurement": "prolongation of median progression-free survival", "setting": "[1]; [3]", "result": 0.8, "unit": "months"}, {"measurement": "adverse events", "setting": "[1]; apatinib alone", "result": "controllable"}, {"measurement": "Relative tumor volume D21", "setting": "[2]; RTV=VT/V0, day 21", "result": 9.27}, {"measurement": "% Tumor inhibition rate D21", "setting": "[2]; day 21, vs HIgG control", "result": 25.67, "unit": "%"}, {"measurement": "Mean tumor volume (mm^3) D21", "setting": "[2]; day 21 after initial administration, 8 mice/group", "result": 1263.86, "unit": "mm^3"}]}
